Source: patent publication US8476314B2, “Substance with sedative effect” (Technology Commercialization Corp, priority 2002, dated 2013)
Entries after “also recorded” stand apart in the source; their conditions may differ.

What was measured:
[1] = system: opioid (or opioid-like) receptor; test: patch-clamp experiments, receptor binding (naltrexone block, affinity order); type: cell-based; conditions: patch-clamp results, decreasing affinity
Excerpt: The physiological effect on the Nav1.8 channel of the following closely related gamma-pyrone derivatives (see FIG. 1) was investigated: I) comenic acid (5-hydroxy-gamma-pyrone-2-carboxylic acid), II) meconic acid (3-hydroxy-gamma-pyrone-2,6-dicarboxylic acid, III) 5-methoxy-gamma-pyrone-2-carboxylic acid, IV) kojic acid (2-hydroxymethyl-5-hydroxy-gamma-pyrone) and V) chelidonic acid (gamma-pyrone-2,6-dicarboxylic acid). […] Clinical Pathophysiology (Russian), in press].
Thus, according to the model of the mechanism of ligand receptor binding of said opioid (or opioid like) receptor, the prerequisites for gamma-pyrones receptor activity are 1) a carboxy group in position 2 of the pyranone ring, 2) a carbonyl group in position 4 of the pyranone ring, and 3) a substituent in position 5 which can participate in Ca^2+ chelation. […] Clinical Pathophysiology (Russian), in press]. Based on these observations, several conclusions concerning the potential effect of substituents in positions 3, 5 and 6 on the stability of ligand-receptor complex can be drawn. The presence of a carboxy group in position 6 (meconic acid, II) increases ligand affinity to the receptor as compared with comenic acid (I). It may be proposed that the carboxy group in position 6 is involved in additional interaction with one or several polar functional groups of the receptor by formation of intermolecular hydrogen or salt bonds. Based on this, introduction of a hydrophobic substituent in position 6 should reduce the affinity of gamma-pyrone derivatives to said opioid (or opioid-like) receptor. […] An increase in the size of the alkoxy group in position 5 will also lead to a further decrease or even total loss of physiological activity of the gamma-pyrone molecule. Bulky substituents in positions 3, 5 and 6 will decrease the affinity of gamma-pyrones to said receptor, since they will less readily be accommodated in the binding pocket.

[2] = solubility; type: physicochemical
[3] = system: Pliss limphosarcoma; test: growth of transplanted Pliss limphosarcoma in rats; type: in vivo; conditions: 50 mg/kg i.p., once per day, 5 times per week, 10 injections; tumor volumes day 6, 9, 13, 16 and mortality vs control; Anoceptin 1% solution
Description: Comenic acid (in medicinal form, referred to as “Anoceptin™”) was also tested on rats with transplanted tumors (Pliss limphosarcoma) to determine if it stimulated tumor growth (Effect of medicine Anoceptin on the growth of transplantable tumor in rats, State Oncology Institute, 2006, Saint-Petersburg, Russia). Pliss limphosarcoma was transplanted subcutaneously into 20 rats. Forty-eight hours after transplantation, the rats were randomly assigned into groups (10 rats in experimental group, and 10 in control group) and the injections were started. Both groups were injected i.p. (intraperitoneal) once per day, 5 times per week and given a total of 10 injections each. The experimental group was administered 50 mg/kg of comenic acid in each injection, while the control group was injected with 1.5 ml of physiological solution. Comenic acid was utilized in its medicinal form (“Anoceptin™”), a 1% solution with ions of proper moiety. For both groups, the size of the tumor was measured on day 6, 9, 13 and 16 of the experiment, and the volumes were calculated. […] The data was determined to be statistically significant, with p<0.05.

[4] = system: Ehrlich carcinoma; test: growth of transplanted Ehrlich carcinoma in rats; type: in vivo; conditions: 50 mg/kg i.p., once per day, 5 times per week, 10 injections; tumor volumes day 13-44 and mortality vs control; Anoceptin 1% solution
Description: Comenic acid (in medicinal form, referred to as “Anoceptin™”) was also tested on rats with transplanted tumors (Ehrlich carcinoma) to determine if it stimulated tumor growth (Effect of medicine Anoceptin on the growth of transplantable tumor, State Oncology Institute, 2006, Saint-Petersburg, Russia). Ehrlich carcinoma was transplanted subcutaneously into 20 rats. Forty-eight hours after transplantation, the rats were randomly assigned into groups (10 rats in experimental group, and 10 in control group) and the injections were started. Both groups were injected i.p. (intraperitoneal) once per day, 5 times per week and given a total of 10 injections each. The experimental group was administered 50 mg/kg of comenic acid in each injection, while each in the control group was injected with 0.125 ml of physiological solution. Comenic acid was utilized in its medicinal form (“Anoceptin™”), a 1% solution with ions of proper moiety. For both groups, the size of the tumor was measured on day 13, 16, 20, 23, 27, 30, 37 and 44 of the experiment, and the volumes were calculated. […] The data was determined to be statistically significant, with p<0.05.

[5] = system: male rats of Wistar line; test: "open field" test, motor activity of rats (sedative effect); type: in vivo, rat; conditions: for Motor activity after the preparation's introduction (n): enteral, squares crossed within 5 minutes; for Lowering motor activity relative to the control (%): vs saline; for Lowering motor activity relative to the Valerian extract (%): vs same dose of Valerian extract
Description: The sedative effect was measured by the change in motor activity of male rats of Wistar line with the mass of 0.20-0.23 kg in “the open field” test [Guiding and Method Materials in Experimental and Clinical Study of New Drugs. Part 2. M., 1980, pp. 126-133].
Male rats were subjected to the enteral introduction of 0.5 ml of saline solution. Then, the animals were divided into two groups. The rats in the first group were tested in “the open field” 60 minutes after the solution's introduction. The rats in the second group were tested 90 minutes after the introduction. The test consisted of the rat being placed in the center of “the open field”, and then the number of squares of “the open field” that the rat crosses within 5 minutes is counted (an estimation of motor activity).
Valerian extract was steamed until it became dry. Then, the dry remains were dissolved in saline in the required dosage (see table 1 and rated in mg/kg of a rat's body weight). The solution obtained was introduced into rats in the same way as for control. The testing of rats in “the open field” was also carried out as described for control.
Comenic acid was dissolved in saline in the desired dosages (see table 1 below). The solution's pH was adjusted to equal 6.5-6.8 using concentrated NaOH solution. Comenic acid was introduced into the rats in the same way as in control. The testing of rats in “the open field” was carried out as described for control group as well.

[6] = system: tetrodotoxin-resistant (TTXr) Nav1.8 slow sodium channels; test: patch-clamp experiments on dorsal root ganglion neurons; type: cell-based; conditions: for modulation of the activity of TTXr Nav1.8 slow sodium channels: patch-clamp, extracellular solution Na+ 65 mM, Ca2+ 2 mM, Mg2+ 2 mM
[7] = system: animals; test: continued daily administration to animals (sedative effect, dependency); type: in vivo
Description: (§1) One of the preferred compounds of the invention is comenic acid, also known as 5-hydroxy-4-oxo-4H-pyran-2-carbon acid, as well as 5-hydroxy-gamma-pyrone-2-carboxylic acid. […] The effect is long lasting, up to 24 hours after administration. […] The acid can be administered in a number of pharmaceutically acceptable ways by mixing it with known and biologically acceptable carriers. Administration methods include all parenteral modes, including injection (intravenously, subcutaneously, intramuscularly or intraperitoneal), transdermally, transmucosally, etc. […] This duration compares quite favorably to a typical drug abuse treatment cycle of 3 to 6 months using substitution methods such as methadone.
The effect from each administration lasts up to 24 hours.

[8] = system: animals; test: treatment of narcotic dependency / withdrawal syndrome in animals; type: in vivo; conditions: pharmacologically effective dose
Description: as §1
It is intended that the selected gamma-pyrones as described in the proceeding section be administered as a substitute for the abused drug. Typically, this will involve administration of a therapeutically effective amount of a composition containing the compounds of the invention at least once every twenty-four hours. […] The preferred dosage range is from about 0.05 to about 0.5 mg per kilogram of body weight per day. Such daily dosage can be achieved in a single application, multiple applications or using a continuous release application.

[9] = experiments repeated with the same rats

## O=C(O)c1cc(=O)c(O)co1 [Comenic acid, 5-hydroxy-gamma-pyrone-2-carboxylic acid]
[1]
  order of affinity of the test molecule to the receptor: II>I>III
[2]
  solubility in non-polar organic solvents: practically insoluble
  solubility in water and alcohol: moderately water- and alcohol-soluble
[3]
  effect on the growth of transplantable tumors of Pliss limphosarcoma: no effect (no stimulation and no inhibition)
[4]
  effect on the growth of transplantable tumors of Ehrlich carcinoma: no effect (no stimulation and no inhibition)
[5]; 1 mg/kg of body weight, 60 min
  Motor activity after the preparation's introduction (n): 43.9 ± 6.8 n
[5]; 1 mg/kg of body weight, 90 min
  Motor activity after the preparation's introduction (n): 51.2 ± 8.3 n
[5]; 1 mg/kg, 60 min
  Lowering motor activity relative to the control (%): 13%
  Lowering motor activity relative to the Valerian extract (%): 19%
[5]; 1 mg/kg, 90 min
  Lowering motor activity relative to the control (%): −8%
  Lowering motor activity relative to the Valerian extract (%): −21%
[5]; 10 mg/kg of body weight, 60 min
  Motor activity after the preparation's introduction (n): 37.6 ± 5.9 n
[5]; 10 mg/kg of body weight, 90 min
  Motor activity after the preparation's introduction (n): 41.6 ± 6.8 n
[5]; 10 mg/kg, 60 min
  Lowering motor activity relative to the control (%): 25%
  Lowering motor activity relative to the Valerian extract (%): 22%
[5]; 10 mg/kg, 90 min
  Lowering motor activity relative to the control (%): 12.5%
  Lowering motor activity relative to the Valerian extract (%): −9%
[5]; 50 mg/kg of body weight, 60 min
  Motor activity after the preparation's introduction (n): 18.7 ± 3.3 n
[5]; 50 mg/kg of body weight, 90 min
  Motor activity after the preparation's introduction (n): 15.2 ± 3.1 n
[5]; 50 mg/kg, 60 min
  Lowering motor activity relative to the control (%): 63%
  Lowering motor activity relative to the Valerian extract (%): 52%
[5]; 50 mg/kg, 90 min
  Lowering motor activity relative to the control (%): 68%
  Lowering motor activity relative to the Valerian extract (%): 52%
[5]; 100 mg/kg of body weight, 60 min
  Motor activity after the preparation's introduction (n): 13.4 ± 4.8 n
[5]; 100 mg/kg of body weight, 90 min
  Motor activity after the preparation's introduction (n): 10.3 ± 2.8 n
[5]; 100 mg/kg, 60 min
  Lowering motor activity relative to the control (%): 73%
  Lowering motor activity relative to the Valerian extract (%): 67%
[5]; 100 mg/kg, 90 min
  Lowering motor activity relative to the control (%): 78%
  Lowering motor activity relative to the Valerian extract (%): 53%
[5]; [9]
  development of tolerance: no development of tolerance
  drug dependency: no indication of drug dependency
  other side effects of the administration: no other side effects
[5]; rats, open field, 50 and 100 mg/kg
  sedative effect compared with that of valerian extract: twice
[6]; listed as I
  modulation of the activity of TTXr Nav1.8 slow sodium channels: modulated the activity; also recorded: shown to modulate the functioning
[7]; 50 days of continued daily use
  drug dependency after continued daily use: without causing drug dependency
[7]; each administration
  duration of the effect after administration: up to 24 hours
[8]
  treatment of narcotic dependency in animals: effective treatment for the cure of narcotic dependency

## O=C(O)c1cc(=O)c(O)c(C(=O)O)o1 [II, 3-hydroxy-gamma-pyrone-2,6-dicarboxylic acid]
[1]
  order of affinity of the test molecule to the receptor: II>I>III
[6]
  modulation of the activity of TTXr Nav1.8 slow sodium channels: modulated the activity

## COc1coc(C(=O)O)cc1=O [III, 5-methoxy-gamma-pyrone-2-carboxylic acid]
[1]
  order of affinity of the test molecule to the receptor: II>I>III
[2]
  solubility in non-polar organic solvents: practically insoluble
  solubility in water and alcohol: moderately water- and alcohol-soluble
[6]; patch clamp, dorsal root ganglion neurons
  effect on the Nav1.8 slow sodium channel compared with comenic acid (I): decrease in activity
[6]
  modulation of the activity of TTXr Nav1.8 slow sodium channels: modulated the activity; also recorded: shown to modulate the functioning

## O=c1cc(CO)occ1O [IV, 2-hydroxymethyl-5-hydroxy-gamma-pyrone, reference compound]
[6]
  modulation of the activity of TTXr Nav1.8 slow sodium channels: did not exhibit such effect; also recorded: did not influence the functioning

## O=C(O)c1cc(=O)cc(C(=O)O)o1 [V, gamma-pyrone-2,6-dicarboxylic acid, reference compound]
[6]
  modulation of the activity of TTXr Nav1.8 slow sodium channels: did not exhibit such effect; also recorded: did not influence the functioning
